Values joined by “and” are separate entries in the source; they are usually repeats but may differ in a detail not shown here. Equal entries are not always repeated.

What all share (assay type): cell-based
The target in assay [1] is T1, 320 non-olfactory GPCRs (Homo sapiens, UniProt P25024).
T1 construct: expressed in transfected cells; host or cells: HTLA cells

In assay [2] the target is T2, 320 non-olfactory GPCRs (Homo sapiens, UniProt P48960).
T2 construct: expressed in transfected cells; host or cells: HTLA cells

Assay [3] concerns the target T3, 320 non-olfactory GPCRs (Homo sapiens, UniProt Q96LB2).
T3 construct: expressed in transfected cells; host or cells: HTLA cells
The settings on record: receptor MRGPRX1; replicate values, Fig_4g.

Assay [4] has as its target T4, 320 non-olfactory GPCRs (Homo sapiens, UniProt Q9BPV8).
T4 construct: expressed in transfected cells; host or cells: HTLA cells
The settings on record: receptor P2RY13; replicate values, Fig_4g.
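For Fold of Basal in this document: compound tested at 1 µM final concentration.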
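For GPCRome agonism screen response in this document: fold over basal response of each receptor without drug.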

T4 sequence (Q9BPV8 whole entry): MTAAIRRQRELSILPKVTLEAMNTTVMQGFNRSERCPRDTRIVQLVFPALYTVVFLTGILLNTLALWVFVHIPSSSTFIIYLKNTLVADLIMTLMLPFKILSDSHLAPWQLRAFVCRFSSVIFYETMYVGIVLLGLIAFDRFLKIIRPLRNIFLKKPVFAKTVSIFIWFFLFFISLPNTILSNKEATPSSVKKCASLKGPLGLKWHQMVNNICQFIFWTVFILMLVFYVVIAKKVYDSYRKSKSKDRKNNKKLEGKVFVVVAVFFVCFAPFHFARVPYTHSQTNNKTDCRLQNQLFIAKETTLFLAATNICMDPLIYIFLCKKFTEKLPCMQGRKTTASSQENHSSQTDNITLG
T1 sequence (P25024 whole entry): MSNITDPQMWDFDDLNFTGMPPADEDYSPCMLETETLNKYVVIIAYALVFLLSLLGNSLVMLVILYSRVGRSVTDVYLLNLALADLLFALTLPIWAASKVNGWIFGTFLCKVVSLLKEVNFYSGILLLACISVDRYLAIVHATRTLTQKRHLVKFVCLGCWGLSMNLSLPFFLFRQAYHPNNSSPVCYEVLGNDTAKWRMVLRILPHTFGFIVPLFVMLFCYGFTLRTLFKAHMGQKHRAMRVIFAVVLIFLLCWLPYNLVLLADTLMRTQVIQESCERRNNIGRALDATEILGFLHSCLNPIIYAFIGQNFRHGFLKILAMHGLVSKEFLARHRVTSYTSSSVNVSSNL
T2 sequence (P48960 21-835): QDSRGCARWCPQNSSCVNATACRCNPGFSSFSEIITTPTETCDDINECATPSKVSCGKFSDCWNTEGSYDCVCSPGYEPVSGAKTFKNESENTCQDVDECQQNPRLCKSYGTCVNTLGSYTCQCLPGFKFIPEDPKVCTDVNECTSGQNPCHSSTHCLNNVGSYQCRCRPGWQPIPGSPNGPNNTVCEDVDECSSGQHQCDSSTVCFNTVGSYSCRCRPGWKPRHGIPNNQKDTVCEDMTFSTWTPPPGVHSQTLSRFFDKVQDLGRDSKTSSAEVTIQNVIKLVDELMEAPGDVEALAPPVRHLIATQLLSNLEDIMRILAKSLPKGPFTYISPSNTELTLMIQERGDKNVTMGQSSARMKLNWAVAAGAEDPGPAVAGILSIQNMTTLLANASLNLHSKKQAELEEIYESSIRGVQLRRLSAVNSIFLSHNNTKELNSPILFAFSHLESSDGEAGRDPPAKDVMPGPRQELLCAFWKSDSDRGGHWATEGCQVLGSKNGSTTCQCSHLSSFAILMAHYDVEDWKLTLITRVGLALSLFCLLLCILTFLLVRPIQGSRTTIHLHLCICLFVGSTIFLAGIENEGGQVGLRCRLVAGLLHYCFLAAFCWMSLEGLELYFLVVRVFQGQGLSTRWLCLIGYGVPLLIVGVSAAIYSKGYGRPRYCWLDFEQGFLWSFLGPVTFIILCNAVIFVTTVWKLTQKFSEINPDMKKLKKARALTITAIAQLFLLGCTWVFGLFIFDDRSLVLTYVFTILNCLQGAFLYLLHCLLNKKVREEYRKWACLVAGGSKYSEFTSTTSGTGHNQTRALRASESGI
T3 sequence (Q96LB2 whole entry): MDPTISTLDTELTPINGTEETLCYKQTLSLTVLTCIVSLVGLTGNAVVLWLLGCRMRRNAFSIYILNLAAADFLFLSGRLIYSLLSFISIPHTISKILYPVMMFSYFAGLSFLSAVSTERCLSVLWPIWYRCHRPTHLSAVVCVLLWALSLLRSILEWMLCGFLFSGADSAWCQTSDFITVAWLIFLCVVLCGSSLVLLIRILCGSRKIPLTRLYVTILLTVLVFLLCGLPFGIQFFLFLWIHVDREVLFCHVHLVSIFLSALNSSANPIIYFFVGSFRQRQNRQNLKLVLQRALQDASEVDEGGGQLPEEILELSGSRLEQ

On to `CCOc1cccc2cc(C(C)NCC3(O)CCCCC3)oc12` (stereo not shown) [O4LE6], for which the “Fold of Basal” value is 1.143 and 1.163 and 1.159 and 1.512 on 320 non-olfactory GPCRs [1]; 0.9696 and 0.6986 and 0.95 and 0.7013 at 320 non-olfactory GPCRs [2]. Besides, the “GPCRome agonism screen response” value on 320 non-olfactory GPCRs [3] is 1.163 and 1.233 and 1.345 and 0.8039; on 320 non-olfactory GPCRs [4] it was 0.7893 and 1.044 and 0.6466 and 2.085.

The values are drawn from article PMC7044277 (Nature Communications, 2020).
